Consider 11 compounds from ChEMBL document CHEMBL1795278, “Synthesis and evaluation of fluorescent heterocyclic aminoadamantanes as multifunctional neuroprotective agents” (Bioorg Med Chem, 2011).

Molecules are shown by their SMILES.

Test [1] can be described thus: Antagonist activity at VGCC in Sprague-Dawley rat brain synaptoneurosomes assessed as inhibition of Kcl-induced calcium flux at 100 uM after 5 mins using FURA-2AM by fluorescent spectrometer analysis relative to control. The format is functional. (A change in cytosolic calcium serves as a functional read-out for many receptors and channels.)
Test [2] can be described thus: Antagonist activity at NMDAR in Sprague-Dawley rat brain synaptoneurosomes assessed as inhibition of NMDA/glycine-induced calcium flux at 100 uM after 5 mins using FURA-2AM by fluorescent spectrometer analysis relative to control. It is filed as functional.
For test [3], the system named is Radical scavenging activity. Description: Antioxidant activity assessed as inhibition of DPPH free radicals at 0.01 mM after 30 mins by UV-visible spectrophotometer analysis relative to control. The format is functional. In general terms: The DPPH test is a chemical assay of radical scavenging.
In test [4] the test system is Radical scavenging activity. The test can be described thus: Antioxidant activity assessed as inhibition of DPPH free radicals at 0.1 mM after 30 mins by UV-visible spectrophotometer analysis relative to control. It is filed as functional.
Test [5] has as its system Radical scavenging activity. The test can be described thus: Antioxidant activity assessed as inhibition of DPPH free radicals at 1 mM after 30 mins by UV-visible spectrophotometer analysis relative to control. It is filed as functional.
Test [6] can be described thus: Antioxidant activity assessed as inhibition of ABTS free radicals at 0.01 mM after 30 mins by UV-visible spectrophotometer analysis relative to control. The format is functional.
A short description of test [7]: Antioxidant activity assessed as inhibition of ABTS free radicals at 0.1 mM after 30 mins by UV-visible spectrophotometer analysis relative to control. The format is functional.
Test [8] is described as follows: Antioxidant activity assessed as inhibition of ABTS free radicals at 1 mM after 30 mins by UV-visible spectrophotometer analysis relative to control. The format is functional.
The subject of test [9] is Radical scavenging activity. Description: Antioxidant activity assessed as inhibition of DPPH free radicals after 30 mins by UV-visible spectrophotometer analysis relative to control. The format is functional.
Test [10] in a line: Antioxidant activity assessed as inhibition of ABTS free radicals after 30 mins by UV-visible spectrophotometer analysis relative to control. The format is functional.
In the next test the target is Nitric oxide synthase 1 (Rattus norvegicus, UniProt P29476). The test can be described thus: Inhibition of nNOS in Sprague-Dawley rat brain homogenates assessed as conversion of oxyhemoglobin to methemoglobin measured for 10 mins by UV-visible spectrophotometer analysis.
Chain of Nitric oxide synthase 1 (P29476 whole entry): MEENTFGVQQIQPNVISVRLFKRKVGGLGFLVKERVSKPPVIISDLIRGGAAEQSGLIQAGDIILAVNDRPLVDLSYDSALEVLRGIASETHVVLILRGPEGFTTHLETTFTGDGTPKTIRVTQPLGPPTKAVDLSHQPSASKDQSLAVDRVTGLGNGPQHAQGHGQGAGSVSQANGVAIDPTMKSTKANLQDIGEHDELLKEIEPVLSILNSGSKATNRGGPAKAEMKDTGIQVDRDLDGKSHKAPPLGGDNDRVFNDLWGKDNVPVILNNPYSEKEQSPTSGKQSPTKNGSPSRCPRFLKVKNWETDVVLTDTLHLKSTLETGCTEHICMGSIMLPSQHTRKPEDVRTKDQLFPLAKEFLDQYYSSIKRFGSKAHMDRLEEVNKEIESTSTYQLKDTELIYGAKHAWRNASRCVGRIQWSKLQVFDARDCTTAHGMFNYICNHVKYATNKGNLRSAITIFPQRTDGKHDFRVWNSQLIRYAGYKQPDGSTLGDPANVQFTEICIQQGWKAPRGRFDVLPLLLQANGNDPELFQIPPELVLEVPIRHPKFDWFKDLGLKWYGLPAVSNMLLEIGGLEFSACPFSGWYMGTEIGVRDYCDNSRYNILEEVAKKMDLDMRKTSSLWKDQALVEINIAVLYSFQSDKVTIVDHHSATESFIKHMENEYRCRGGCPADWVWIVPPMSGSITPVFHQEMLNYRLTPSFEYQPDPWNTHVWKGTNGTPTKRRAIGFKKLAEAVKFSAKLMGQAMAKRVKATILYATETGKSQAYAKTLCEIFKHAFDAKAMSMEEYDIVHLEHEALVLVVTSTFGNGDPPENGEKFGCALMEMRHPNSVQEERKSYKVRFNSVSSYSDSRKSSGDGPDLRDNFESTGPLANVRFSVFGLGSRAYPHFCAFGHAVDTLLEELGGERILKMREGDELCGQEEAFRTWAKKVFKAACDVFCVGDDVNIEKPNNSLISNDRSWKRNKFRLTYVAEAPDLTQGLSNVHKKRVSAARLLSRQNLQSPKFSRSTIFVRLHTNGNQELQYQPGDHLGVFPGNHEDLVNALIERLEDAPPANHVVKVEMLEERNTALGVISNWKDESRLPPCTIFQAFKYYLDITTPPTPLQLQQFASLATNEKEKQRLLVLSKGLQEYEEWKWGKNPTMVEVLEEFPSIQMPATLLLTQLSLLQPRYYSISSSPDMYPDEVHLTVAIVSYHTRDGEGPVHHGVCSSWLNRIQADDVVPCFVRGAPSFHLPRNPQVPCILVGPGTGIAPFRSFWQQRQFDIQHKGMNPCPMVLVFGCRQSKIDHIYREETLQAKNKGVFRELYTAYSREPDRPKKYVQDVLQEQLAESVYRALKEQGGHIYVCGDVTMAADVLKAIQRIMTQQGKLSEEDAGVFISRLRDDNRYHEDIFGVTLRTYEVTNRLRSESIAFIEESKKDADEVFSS

On to `CNc1ccccc1C(=O)NC12CC3CC(CC(C3)C1)C2`, for which the “inhibition (INH)” value was determined as 93.2% in [1] and 96.66% in test [2]. The inhibition in [3] was determined as 42.7%; in [4], 42.8%; in [5] it was 44%; in test [6] it was 10.7%; in test [7] it was 24.3%; in [8], 50.5%. Moreover, the inhibition result in [9] and in test [10] was “Dose-dependent effect” each time.
For the compound `CN(C)c1cccc2c(S(=O)(=O)NC34CC5CC(CC(C5)C3)C4)cccc12`, the “inhibition (INH)” value in test [1] was 44.77%; in [2], 78.05%. At Nitric oxide synthase 1 (read-out: IC50), the IC50 came out at 410 nM. For the same compound, the inhibition was 38% in [3]; 38.1% in test [4]; 40.9% in test [5]; 8.11% in test [6]; 22.4% in [7]; 41.6% in [8]. Moreover, the inhibition result in test [9] and in test [10] was “Dose-dependent effect” throughout.
Take `O=[N+]([O-])c1ccc(NC23CC4CC(CC(C4)C2)C3)c([N+](=O)[O-])c1`: the “inhibition (INH)” value in test [1] was determined as 89.14%; in test [2], 80.75%. Moreover, the half-inhibitory concentration (IC50) result at Nitric oxide synthase 1 is “Not Active”. In addition, the inhibition came out at 32.1% in [3]; 36.8% in test [4]; 37% in [5]; 8.21% in test [6]; 9.73% in test [7]; 15.7% in [8]. In addition, the inhibition result in test [9] and in test [10] was “Dose-dependent effect” throughout.
`NC12CC3CC(CC(C3)C1)C2` [AMANTADINE]: the “inhibition (INH)” value was 86.13% in test [1] and 83.1% in [2]. In addition, at Nitric oxide synthase 1, the IC50 entry is on record as “Not Active”. Also, the inhibition in test [3] is 0.55%; in test [4] it was 2.11%; in test [5], 2.32%; in [6], 0.49%; in test [7], 1.34%; in test [8], 1.62%. Moreover, the inhibition result in test [9] and in test [10] was “Dose-dependent effect” throughout.
Take `N#Cc1c2ccccc2cn1C12CC3CC(CC(C3)C1)C2`: the “inhibition (INH)” value was determined as 54.24% in [1] and 84.01% in test [2]. Besides, the inhibition in [3] worked out at 27.4%; in test [4] it was 27.8%; in test [5], 32.7%; in test [6], 9.98%; in test [7], 13.2%; in [8], 13.5%. In addition, the inhibition result in test [9] and in [10] was “Dose-dependent effect” throughout.
Consider `N=C(N)NN` [PIMAGEDINE], for which the IC50 at Nitric oxide synthase 1 (read-out: IC50) was determined as 19400 nM.
As to `COCCOC(=O)C1=C(C)NC(C)=C(C(=O)OC(C)C)C1c1cccc([N+](=O)[O-])c1` (stereo not given) [NIMODIPINE], the “inhibition (INH)” value in test [1] came to 12.29%.
Consider `O=C(NC12CC3CC(CC(C3)C1)C2)c1n[nH]c2ccccc12`, for which the “inhibition (INH)” value came to 93.43% in test [1] and 83% in test [2]. Also, the inhibition was 28.7% in test [3]; 30.1% in test [4]; 32.9% in test [5]; 12.4% in test [6]; 21.7% in test [7]; 39.9% in test [8]. Further, the inhibition entry in test [9] and in [10] was “Dose-dependent effect” throughout.
As to `c1ccc(CNC23OC4C5C6CC(C7C6C4C72)C53)cc1` (stereo not given), the “inhibition (INH)” value in [1] is 70.12%; in [2] it was 86.63%. The IC50 entry on Nitric oxide synthase 1 is on record as “Not Active”. Besides, the inhibition in [3] came to 0.2%; in test [4], 5.99%; in test [5], 9.98%; in [6] it was 2.44%; in test [7] it was 7.33%; in test [8], 8.88%. For the same compound, the inhibition result in test [9] and in test [10] was “Dose-dependent effect” each time.
As to `O=C(NC12CC3CC(CC(C3)C1)C2)c1cc2ccccc2oc1=O`, the “inhibition (INH)” value is given as 75.35% in test [1] and 79.71% in test [2]. At Nitric oxide synthase 1 (read-out: IC50), the IC50 worked out at 850 nM. For the same compound, the inhibition in test [3] came out at 31.8%; in [4], 69.8%; in test [5] it was 91.7%; in test [6], 87.5%; in test [7], 91.8%; in [8], 93.3%. For the same compound, the inhibition result in [9] and in [10] was “Dose-dependent effect” throughout.
Take `Cc1c(C)c2c(c(C)c1O)CCC(C)(C(=O)O)O2` (stereo not given): the inhibition in test [3] worked out at 45.8%; in test [4], 74.6%; in test [5], 95.1%; in test [6], 47.6%; in test [7] it was 62.8%; in [8] it was 88.5%. Moreover, the inhibition entry in [9] and in test [10] was “Dose-dependent effect” throughout.

Usually inhibition stands for the share of the control response that was lost under treatment. The IC50 is the concentration needed to halve the response being measured.
